{"source": "patent US20230324392A1", "about": "“METHODS AND COMPOSITIONS FOR TARGETING CYTOSOLIC DSDNA SIGNALING IN CHROMOSOMALLY UNSTABLE CANCERS” (MEMORIAL SLOAN KETTERING CANCER CENTER, priority 2020, published 2023)", "key": {"4T1 tumors": {"tested_on": "4T1 tumors", "experiment": "Wild-type or cGAS-knockout orthotopic 4T1 tumors treated intratumorally with ADU-S100", "format": "in vivo, mouse", "conditions": "ADU-S100 10 μg intratumorally, cGAS KO vs wild-type", "procedure": "Methods. Briefly, wild-type or cGAS-knockout 4T1 tumors were orthotopically transplanted in the mammary fat pad of BALB/c immune competent mice. cGAS was knocked out using CRISPR-Cas9. The mice were treated intratumorally with PBS (vehicle) or the STING agonist, ADU-S100 (10 μg)."}, "CT26 cells": {"tested_on": "CT26 cells", "experiment": "Tail vein inoculation of CT26 cells in BALB/c mice, metastasis and survival", "format": "in vivo, mouse", "conditions": "CT26, BALB/c, IP, vs vehicle", "protocol": "Animal metastasis studies: Animal experiments were performed in accordance with protocols approved by the MSKCC Institutional Animal Care and Use Committee. […] There was no need to randomize animals. Investigators were not blinded to group allocation. For tail vein injections, 5×10^4 4T1, 2.5×10^4 B16F10, or 10^5 CT26 cells were injected into the tail vein of 6-7-week old BALB/c (4T1 and CT26) or C57BL/6 (B16F10) mice. Metastasis was primarily assessed through overall survival. Overall survival endpoint was met when the mice died or met the criteria for euthanasia under the IACUC protocol. Animals were censored when death was confirmed to have occurred due to metastasis-unrelated causes such as injury or death during injection, surgery, or anesthesia. Surface lung metastases were assessed at endpoint by direct visual examination after euthanasia at which points lungs were perfused and fixed in 4% paraformaldehyde (4T1 and B16F10 experiments) or stained using India-ink (CT26 experiments). […] H-151 was reconstituted in DMSO with concentration of 100 mM. Each mouse was injected intraperitoneally with 7.5 μL of H-151 stock solution in 200 μL of PBS with 0.1% Tween −80."}, "4T1 cells [1]": {"tested_on": "4T1 cells", "experiment": "Ifnb1 and ISG expression in transfected 4T1 cells (qPCR)", "format": "cell-based, mouse", "procedure": "Quantitative PCR for STING inhibition study: RNA was extracted from cells with Trizol (Invitrogen, Carlsbad, CA, #15596026). cDNA was synthesized using the RNA to cDNA EcoDry™ Premix (Double Primed) kit (Takara #639549). Real-time PCR was performed to measure the relative mRNA expression levels of ISGs and the control GAPDH using Luna® Universal qPCR Master Mix (NEB, IPSWICH, MA, M3003L). The qPCR reaction and analysis were performed on a QuantStudio 6 platform (Life technology, Carlsbad, CA). The sequence of primers for Ccl5 is 5′-[…]-3′ and 5′-[…]-3′. The sequence of primers for Cxcl10 is 5′-[…]-3′ and 5′-[…]-3′, The sequence of primers for Isg15 is 5-A AAGAA-[…]-3′ and 5′-[…]-3′. The sequence for primers for Gapdh is 5′-[…]-3′ and 5′-[…]-3′.\nDespite constitutive cGAS-STING activation, 4T1 cells had low baseline expression of Ifnb1 and other ISGs. […] Similar to our in vitro findings, control, cGAS-KO, and STING-KO tumors had low basal—and nearly undetectable—levels of IFN-β, when compared to those observed during active anti-tumor immune responses arising from immune checkpoint blockade of a responsive tumor model used as a reference control (FIG. 6D)."}, "4T1 cells [2]": {"tested_on": "4T1 cells", "experiment": "Wound migration of control, Cgas-KO and Enpp1-KO 4T1 cells", "format": "cell-based, mouse", "conditions": "cGAMP 5.5 μm", "procedure": "Cellular growth and migration assays: Cellular proliferation rates were assessed by seeding 5×10^4 control or Enpp1-KO 4T1 cells in 6-well plates (3-4 replicates per condition). Cells were seeded in the regular RPMI medium with 10% Fetal bovine serum (FBS). About 48 hours before cells growing to form a 90% confluency monolayer, regular media were replaced with media containing indicated drugs. […] Fresh medium was changed every 12 hours. When reaching ˜90% confluency, cells were treated with RPMI medium containing 10 μm Mitomycin C for 1 hour. Wounds were formed using sterile P200 pipette tips. Images of the wounds were captured every 8 hours and were analyzed with a wound healing tool macro in ImageJ (dev.mri.cnrs.fr/projects/imagej-macros/wiki/Wound_Healing_Tool).\nThrough its ability to bind extracellular adenosine receptors in both tumor and immune cells, adenosine promotes cancer cell migration and is a potent immune suppressor, respectively (FIG. 12B)."}, "4T1 cells [3]": {"tested_on": "4T1 cells", "experiment": "Fluorescence-based indirect adenosine measurement after exogenous cGAMP", "format": "cell-based, mouse", "conditions": "with and without EHNA"}}}
{"compound": "Nc1ncnc2c1ncn2[C@@H]1O[C@@H]2COP(=O)([S-])O[C@@H]3[C@H](O)[C@@H](COP([O-])(=S)O[C@H]2[C@H]1O)O[C@H]3n1cnc2c(N)ncnc21.[Na+].[Na+]", "note": "(stereo partly shown) [ADU-S100]", "values": [{"measurement": "tumor sensitivity (tumor volume over time)", "setting": "4T1 tumors", "value": "most sensitive condition"}]}
{"compound": "CCc1ccc(NC(=O)Nc2c[nH]c3ccccc23)cc1", "note": "[H-151]", "values": [{"measurement": "survival of tumor bearing mice", "setting": "CT26 cells", "value": "significant prolongation in overall survival"}]}
{"compound": "Nc1nc2c(ncn2[C@@H]2O[C@@H]3COP(=O)(O)O[C@H]4[C@@H](O)[C@H](n5cnc6c(N)ncnc65)O[C@@H]4COP(=O)(O)O[C@@H]2[C@@H]3O)c(=O)[nH]1", "note": "[cGAMP, 2′3′-cGAMP]", "values": [{"measurement": "increase in ISG expression upon transfection", "setting": "4T1 cells [1]", "value": "~2", "unit": "fold"}, {"measurement": "induction in Ifnb1 upon transfection", "setting": "4T1 cells [1]", "value": "no induction"}, {"measurement": "rescue of cancer cell migration by exogenous cGAMP", "setting": "4T1 cells [2]", "value": "rescued migration only in Cgas-KO but not Enpp1-KO tumor cells"}, {"measurement": "H2O2 production after addition of exogenous cGAMP", "setting": "4T1 cells [3]", "value": "concentration-dependent increase"}]}
{"compound": "Poly(I.C)", "values": [{"measurement": "induction of ISGs upon transfection", "setting": "4T1 cells [1]", "value": "robust induction of ISGs"}]}
